We go through three molecules from patent publication US20240243319A1, “AQUEOUS ELECTROLYTE, SALTS USED THEREIN, AND REDOX FLOW BATTERY USING SAID AQUEOUS ELECTROLYTE” (MITSUBISHI CHEMICAL CORPORATION, priority 2021, published 2024).

Structures are written as SMILES.

This data set in a line: Dissolution test in 1 M chloride salt aqueous solutions. It counts as physicochemical. The following applies: potassium chloride, lithium chloride and ammonium chloride aqueous solution, room temperature.
Where [1] appears, read: 0.01 mmol added to 10 mL each of 1 M sodium chloride.

Turning to `O=C1c2ccccc2C(=O)c2c1cc(S(=O)(=O)[O-])c(O)c2O.[Na+]` [Alizarin Red S, reference compound], the “dissolution in aqueous salt solutions” value under setting [1] is reported as “did not dissolve”.
Regarding `O=C(O)c1ccc2nc3cc(O)c(O)cc3nc2c1` [compound represented by formula (1a-1)], the “dissolution in aqueous salt solutions” value (0.05 mmol added to 10 mL each of 1 M sodium chloride) is given as “did not dissolve”.
Take `O=C(O)c1ccc2c(c1)C(=O)c1c(O)ccc(O)c1C2=O` [compound represented by formula (2a-1)]: the “dissolution in aqueous salt solutions” value under setting [1] is listed as “did not dissolve”.
